Assay results taken from patent US20100130737A1, “Regulating Agent of GPR34 Receptor Function” (TAKEDA PHARMACEUTICAL COMPANY LIMITED, priority 2005, published 2010).
pIC50: −log10 of the molar value.

Columns and labels:
[1] = test system: rat peritoneal mast cells; experiment: Degranulation inhibiting activity in rat peritoneal mast cells (β-hexosaminidase release); format: cell-based; conditions: 10 μM compound; co-stimulation with 3 μM LysoPS and 100 ng/ml DNP-BSA = 100%, spontaneous degranulation = 0%
Procedure: Ice-cooled mast cell medium (hereunder called MCM: 150 mM NaCl, 3.7 mM KCl, 3.0 mM NaH2PO4, 3.5 mM KH2PO4, 5.6 mM (D)-Glucose, 0.1% bovine serum albumin (BSA), 0.1% gelatin, 10 U/ml heparin, pH 6.8) was injected intraperitoneally into rats, about 40 ml per rat, the abdomens were massaged for about 2 minutes and then opened along the median line, and ascites was collected. The collected ascites were filtered with a cell strainer (Becton Dickinson) and centrifuged for 7 minutes at 50×g, and the precipitated cells were suspended in MCM and then centrifuged again for 7 minutes at 50×g. The precipitated cells were suspended in 5 ml of MCM, layered over 2 ml of 32% (w/v) BSA solution (dissolved in 0.9% NaCL), and left for 20 minutes at room temperature. This was centrifuged for 15 minutes at room temperature at 300×g, the cells between the MCM and BSA solution were discarded, and the precipitated cells were suspended in MCM and washed twice by being centrifuged for 5 minutes at 300×g. The precipitated cells were suspended in assay buffer (150 mM NaCl, 3.7 mM KCl, 3.0 mM NaH2PO4, 3.5 mM KH2PO4, 0.9 mM CaCl2, 5.6 mM (D)-Glucose, 0.01% BSA, pH 6.8), and these cells were used in the following test.
RPMC cells suspended in assay buffer were passively sensitized by adding 10 μg/ml of monoclonal mouse anti-DNP-IgE (Seikagaku) and leaving them for 30 minutes on ice. After 5 minutes of centrifugation at 300×g, the precipitated cells were washed 3 times with assay buffer. The RPMC cells suspended in assay buffer were dispensed on 96-well V-bottom plates, 2×10^4 cells per well. The assay was performed with n=3 under each set of reaction conditions. The plates were maintained for 5 minutes at 37° C., the test compound was added, and after 15 minutes lysoPS (Sigma) was added to a final concentration of 3 μM and DNP-BSA (Calbiochem) to a final concentration of 100 ng/ml for a final capacity of 200 and left on a water bath at 37° C. After 20 minutes, the plate was ice cooled to stop RPMC activation, followed by 5 minutes of centrifugation at 300×g, and β-hexosaminidase activity in the supernatant was measured using 4-methylumbelliferyl-2-acetamido-2-deoxy-β-D-glucopyranoside (Wako Pure Chemical) degradation as the indicator.

[2] = biological target: human GPR34 (Homo sapiens, UniProt Q9UPC5); experiment: Human GPR34 antagonist activity indicated by changes in intracellular calcium concentration (FLIPR); format: cell-based; set-up: expressed in transfected cells; host or cells: CHO cells (human GPR34CHO line) stably transfected with pCR3.1 human lung Gα16; conditions: CHO cells expressing human GPR34/Gα16, against 2 μM lysoPS final concentration, Fluo-3AM
Procedure: CHO cells expressing human GPR34/Gα were diluted to 3×10^4/100 μl in cell culture medium [nucleic acid-free Minimum Essential Alpha Medium (Invitrogen) containing 10% dialyzed fetal bovine serum (Invitrogen) 0.5 mg/ml Geneticin (Invitrogen), penicillin and streptomycin (Invitrogen)], dispensed 100 μl per well into a Black walled 96-well plate (Costar), and cultured overnight in a CO2 incubator. Changes in intracellular calcium concentration were measured with a FLIPR (Molecular Device) by the methods described below.
50 μg of Fluo-3AM (Dojindo) was dissolved in 21 μl of DMSO (Dojindo), an equal amount of 20% pluronic acid (Molecular Probes) was added and mixed, and this was added to 10.6 ml of assay buffer [prepared by adding 20 ml of 1 M HEPES (pH 7.4, Dojindo) to HBSS (Invitrogen), and then adding 10 ml of a solution obtained by dissolving 710 mg of Probenecid (Sigma) in 5 ml of 1 N NaOH and then adding and mixing 5 ml of the HBSS/HEPES solution)] with 105 μl of fetal bovine serum added thereto to prepare a fluorescent dye solution. The medium was removed from the cell plate, 100 μl per well of the fluorescent dye solution was immediately poured in, and the cells were cultured for 1 hour in a CO2 incubator to incorporate the fluorescent dye into the cells. After culture, the cells were washed with the aforementioned assay buffer. The compound was dissolved in DMSO (Wako Pure Chemical), diluted with DMSO as necessary, added to the aforementioned assay buffer to the target concentration and poured into the plate. To measure antagonist activity, 8 μM lysophosphatidyl serine (lysoPS, Alexis) solution (2 μM final concentration during reaction) was poured into the plate, which was set in the FLIPR. Following these preliminaries, the agonist effect was measured in the FLIPR by measuring changes in intracellular calcium concentration up to 180 seconds after addition of the sample, and after 200 seconds lysoPS was added and the antagonist effect was measured. In the case of the agonist effect, the EC50 value of the added compound was calculated from the dose reaction curve using changes in fluorescent strength from 0 to 180 seconds after the start of the reaction. In the case of the antagonist effect, the IC50 was calculated from the dose reaction curve using changes in maximum fluorescent strength after 200 to 380 seconds of reaction time. The data was analyzed using “GraphPad PRISM4”.

Sequence of human GPR34 (Q9UPC5 whole entry): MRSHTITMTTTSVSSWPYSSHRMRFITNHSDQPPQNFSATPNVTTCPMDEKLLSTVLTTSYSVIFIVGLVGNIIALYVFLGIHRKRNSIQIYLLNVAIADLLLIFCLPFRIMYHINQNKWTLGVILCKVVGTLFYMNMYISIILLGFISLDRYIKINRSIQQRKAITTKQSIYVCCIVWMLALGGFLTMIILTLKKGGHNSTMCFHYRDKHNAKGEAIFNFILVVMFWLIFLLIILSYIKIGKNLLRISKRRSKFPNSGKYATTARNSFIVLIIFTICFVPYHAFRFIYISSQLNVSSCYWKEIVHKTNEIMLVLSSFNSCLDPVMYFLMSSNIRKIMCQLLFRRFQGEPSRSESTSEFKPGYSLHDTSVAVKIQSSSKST

Row | SMILES | melting point | pIC50 [2] | degranulation of rat peritoneal mast cells due to LysoPS and DNP-BSA stimulation [1] [%]
1 | COC(=O)CC(=O)NC1(C(=O)O)Cc2ccc(-c3ccc(Cl)cc3)cc2C1 (stereo not drawn) [Example B13] | – | – | 10
2 | O=C(Cc1ccc(OCc2ccccc2)cc1)NC1(C(=O)O)Cc2ccc(-c3ccc(Cl)cc3)cc2C1 (stereo not drawn) [Example B174, 2-({[4-(Benzyloxy)phenyl]acetyl}amino)-5-(4-chlorophenyl)indan-2-carboxylic acid] | – | – | 8
3 | Cc1c(C(=O)N[C@@H](Cc2ccc(OCc3ccccc3)cc2)C(=O)O)oc2cc(-c3ccc(Cl)cc3)ccc12 [Example C115, O-Benzyl-N-{[6-(4-chlorophenyl)-3-methyl-1-benzofuran-2-yl]carbonyl}-L-tyrosine] | 143 to 144 °C | – | 20
4 | CCCOc1ccc(-c2ccc3sc(C(=O)N[C@@H](Cc4ccc(OCc5ccc(F)cc5)cc4)C(=O)O)cc3c2)cc1 [Example C131, O-(4-Fluorobenzyl)-N-{[5-(4-propoxyphenyl)-1-benzothiophene-2-yl]carbonyl}tyrosine] | 211 to 212 °C | ≥ 6.00 | 10.2
5 | O=C(N[C@@H](Cc1ccc(OCc2ccc(F)cc2)cc1)C(=O)O)c1cc2cc(-c3ccc(Cl)cc3)ccc2s1 [Example C133, N-{[5-(4-Chlorophenyl)-1-benzothiophene-2-yl]carbonyl}-O-(4-fluorobenzyl)tyrosine] | 189 to 190 °C | ≥ 6.00 | 12.4
6 | O=C(N[C@@H](Cc1ccc(OCc2ccccc2)cc1)C(=O)O)c1cn2cc(-c3ccccc3Cl)ccc2n1 [Example E24, O-Benzyl-N-{[6-(2-chlorophenyl)imidazo[1,2-a]pyridin-2-yl]carbonyl}tyrosine] | 228 °C | ≥ 6.00 | –
7 | O=C(N[C@@H](Cc1ccc(OCc2ccccc2)cc1)C(=O)O)c1ccc2nc(-c3ccc(Cl)cc3)cn2c1 [Example E25, O-Benzyl-N-{[2-(4-chlorophenyl)imidazo[1,2-a]pyridin-6-yl]carbonyl}tyrosine] | 278 to 280 °C | ≥ 6.00 | –
8 | Cc1c(-c2ccc(Cl)cc2)ccc2nc(C(=O)N[C@@H](Cc3ccc(OCc4ccccc4)cc3)C(=O)O)cn12 [Example E26, O-Benzyl-N-{[6-(4-chlorophenyl)-5-methylimidazo[1,2-a]pyridin-2-yl]carbonyl}tyrosine] | 263 to 264 °C | ≥ 6.00 | –
9 | Cc1cc(-c2ccc(Cl)cc2)cn2cc(C(=O)N[C@@H](Cc3ccc(OCc4ccccc4)cc3)C(=O)O)nc12 [Example E27, O-Benzyl-N-{[6-(4-chlorophenyl)-8-methylimidazo[1,2-a]pyridin-2-yl]carbonyl}tyrosine] | 249 to 250 °C | ≥ 6.00 | –
10 | O=C(N[C@@H](Cc1ccc(OCc2ccccc2)cc1)C(=O)O)c1cn2cccc(OCc3ccc(Cl)cc3)c2n1 [Example E28, O-Benzyl-N-({8-[(4-chlorobenzyl)oxy]imidazo[1,2-a]pyridin-2-yl}carbonyl)tyrosine] | 210 °C | ≥ 6.00 | –

Now from value to compound, other results behind:

Row | melting point | pIC50 [2] | SMILES | degranulation of rat peritoneal mast cells due to LysoPS and DNP-BSA stimulation [1] [%]
11 | 256 to 257 °C | ≥ 6.00 | O=C(N[C@@H](Cc1ccc(OCc2ccccc2)cc1)C(=O)O)c1cn2nc(/C=C/c3ccc(Cl)cc3)ccc2n1 [Example E29, O-Benzyl-N-({6-[(E)-2-(4-chlorophenyl)ethenyl]imidazo[1,2-b]pyridazin-2-yl}carbonyl)tyrosine] | –
12 | 242 to 244 °C | ≥ 6.00 | O=C(N[C@@H](Cc1ccc(OCc2ccccc2)cc1)C(=O)O)c1nc2ccc(-c3ccc(Cl)cc3)cn2c1Cl [Example E37, O-Benzyl-N-{[3-chloro-6-(4-chlorophenyl)imidazo[1,2-a]pyridin-2-yl]carbonyl}tyrosine] | –
13 | 267 to 270 °C | ≥ 6.00 | O=C(N[C@@H](Cc1ccc(OCc2ccccc2)cc1)C(=O)O)c1cn2cc(/C=C/c3ccc(Cl)cc3)ccc2n1 [Example E41, O-Benzyl-N-({6-[(E)-2-(4-chlorophenyl)ethenyl]imidazo[1,2-a]pyridin-2-yl}carbonyl)tyrosine] | –
14 | 266 to 267 °C | ≥ 6.00 | Cc1ccc(/C=C/c2ccc3nc(C(=O)N[C@@H](Cc4ccc(OCc5ccccc5)cc4)C(=O)O)cn3c2)cc1 [Example E42, O-Benzyl-N-({6-[(E)-2-(4-methylphenyl)ethenyl]imidazo[1,2-a]pyridin-2-yl}carbonyl) tyrosine] | –
15 | 263 °C (dec.) | ≥ 6.00 | CC(C)Oc1ccc(-c2ccc3nc(C(=O)N[C@@H](Cc4ccc(OCc5ccccc5)cc4)C(=O)O)cn3c2)cc1 [Example E45, O-Benzyl-N-{[6-(4-isopropoxyphenyl)imidazo[1,2-a]pyridin-2-yl]carbonyl}tyrosine] | –
16 | 250 to 252 °C | ≥ 6.00 | O=C(N[C@@H](Cc1ccc(OCc2ccccc2F)cc1)C(=O)O)c1cn2ccc(-c3ccc(Cl)cc3)cc2n1 [Example E47, N-{[7-(4-Chlorophenyl)imidazo[1,2-a]pyridin-2-yl]carbonyl}-O-(2-fluorobenzyl)tyrosine] | –
17 | 248 to 250 °C | ≥ 6.00 | O=C(N[C@@H](Cc1ccc(OCc2cccc(F)c2)cc1)C(=O)O)c1cn2ccc(-c3ccc(Cl)cc3)cc2n1 [Example E48, N-{[7-(4-Chlorophenyl)imidazo[1,2-a]pyridin-2-yl]carbonyl}-O-(3-fluorobenzyl)tyrosine] | –
18 | 255 to 257 °C | ≥ 6.00 | O=C(N[C@@H](Cc1ccc(OCc2ccc(F)cc2)cc1)C(=O)O)c1cn2ccc(-c3ccc(Cl)cc3)cc2n1 [Example E49, N-{[7-(4-Chlorophenyl)imidazo[1,2-a]pyridin-2-yl]carbonyl}-O-(4-fluorobenzyl)tyrosine] | –
19 | 178 to 179 °C | ≥ 6.00 | O=C(N[C@@H](Cc1ccc(OCc2ccccc2)cc1)C(=O)O)c1cn2nc(SCc3ccccc3)ccc2n1 [Example E54, O-Benzyl-N-{[6-(benzylthio)imidazo[1,2-b]pyridazine-2-yl]carbonyl}tyrosine] | –
20 | 239 °C (dec.) | – | O=C(NC(Cc1ccc(OCc2ccccc2)cc1)C(=O)O)c1cn2cc(CCc3ccccc3)ccc2n1 (stereo not drawn) [Example E57, O-Benzyl-N-{[6-(2-phenethyl)imidazo[1,2-a]pyridin-2-yl]carbonyl}tyrosine] | 8.3
21 | 263 °C | ≥ 6.00 | N#Cc1ccc(COc2ccc(C[C@H](NC(=O)c3cn4ccc(-c5ccc(Cl)cc5)cc4n3)C(=O)O)cc2)cc1 [Example E64, N-{[7-(4-Chlorophenyl)imidazo[1,2-a]pyridin-2-yl]carbonyl}-O-(4-cyanobenzyl)tyrosine] | –
